# Source: patent US20230157998A1, “Methods of Inhibiting SARS-CoV-2 Replication and Treating Corona Virus Disease 2019” (Pfizer Inc., priority 2020, published 2023)
# Where “and” joins values, the source holds several entries; their conditions need not be identical. Identical values can stand only once. Like-named read-outs stand apart in the source and are kept apart here.
# Tests used:
# [1] = human
# Freeze-thaw experiment = settings: solutions of the order-of-addition experiment, −20° C. freezer ~24 hours, thawed at room temperature
# [2] = ~1 mg/mL, 5% v/v co-solvent, pH 4 or 5, with or without 15 mg/mL SBE-β-CD, up to 7 days, all samples
# NL63-CoV 3CLpro = NL63-CoV 3CLpro (Human coronavirus NL63, UniProt P0C6X5); experiment: FRET protease activity assay; type: biochemical; settings: Alpha-CoV; [E]T 170 ± 4 nM
# Sequence of NL63-CoV 3CLpro (P0C6X5 2940-3242): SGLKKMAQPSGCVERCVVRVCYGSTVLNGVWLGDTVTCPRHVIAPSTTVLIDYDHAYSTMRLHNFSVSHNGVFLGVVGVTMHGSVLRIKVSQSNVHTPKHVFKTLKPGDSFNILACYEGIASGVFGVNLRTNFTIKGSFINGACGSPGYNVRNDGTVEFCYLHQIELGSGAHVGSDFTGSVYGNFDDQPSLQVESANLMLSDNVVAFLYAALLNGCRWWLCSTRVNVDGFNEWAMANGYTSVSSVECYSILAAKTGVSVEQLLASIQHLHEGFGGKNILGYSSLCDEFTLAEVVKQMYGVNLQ
# physchem [3] = settings: 25 °C, pH 5, aqueous buffer, thermodynamic from solid, Saturated solubility for PF-00835231 at 25° C.
# physchem [4] = settings: 4 °C, thermodynamic from solid
# [5] = system: SARS-CoV-2 (USA_WA1/2020); settings: for synergy score: isobologram level 0.9
# [6] = system: SARS-CoV-2 Washington strain 1; experiment: Cytopathic effect (CPE) assay in VeroE6-enACE2 cells; type: cell-based
# physchem [7] = settings: 25 °C, pH 5, aqueous buffer, thermodynamic from solid, PF-00835321 Saturated Solubility
# Human Cathepsin B = Human Cathepsin B (Homo sapiens, UniProt P07858); experiment: Protease panel; type: biochemical
# [8] = system: SARS-CoV-2 USA-NYU-VC-003/2020; experiment: In vitro drug efficacy in A549+ACE2 cells; type: cell-based; settings: Severe acute respiratory syndrome coronavirus 2, 24 hours post infection
# SARS-CoV-2 3CLpro = SARS-CoV-2 3CLpro (Severe acute respiratory syndrome coronavirus 2, UniProt P0DTD1); experiment: Thermal-shift assay; settings: n=8; 55.9+/−[…] C. (n=16) without compound
# 229E-CoV-2 3CLpro = 229E-CoV-2 3CLpro (Human coronavirus 229E, UniProt P0C6X1); experiment: FRET protease activity assay; type: biochemical; settings: Alpha-CoV; [E]T 118 ± 3 nM
# Sequence of 229E-CoV-2 3CLpro (P0C6X1 2966-3267): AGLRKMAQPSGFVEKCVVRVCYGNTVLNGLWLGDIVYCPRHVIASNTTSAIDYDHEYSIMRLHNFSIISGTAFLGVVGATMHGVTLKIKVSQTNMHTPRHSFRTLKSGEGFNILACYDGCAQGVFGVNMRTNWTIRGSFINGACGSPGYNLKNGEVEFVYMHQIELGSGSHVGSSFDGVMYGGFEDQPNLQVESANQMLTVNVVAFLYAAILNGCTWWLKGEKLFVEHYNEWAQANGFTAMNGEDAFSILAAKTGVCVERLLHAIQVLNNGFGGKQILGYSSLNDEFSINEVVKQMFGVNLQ
# [9] = system: BetaCov GHB-03021/2020 strain; experiment: microbe, parasite or virus in culture; type: cell-based, SARS-CoV-2; settings: Severe acute respiratory syndrome coronavirus 2
# [10] = pH 7.4
# cytochrome P450 enzymes = settings: human, microsomes
# physchem [11] = settings: 25 °C, organic solvent or mixture, thermodynamic from solid
# SARS-CoV-2 = settings: for Bliss Synergy Score / HSA Synergy Score / Loewe Synergy Score: with Remdesivir; for classification of the combination effect: with remdesivir
# in vitro = settings: human
# [12] = Saturated solubility in CD/water mixtures with polymeric excipients (F6); settings: 25° C., pH 5, HP-β-CD 15 mg/mL
# [13] = 48 h
# [14] = Assay of CD/co-solvent/water formulations of different compositions over 5 days (F8); settings: all formulations of Formulation Table F11
# VeroE6-enACE2 cells = settings: African green monkey
# [15] = rat, dog, monkey, in vivo
# [16] = Plasma protein binding by equilibrium dialysis
# [17] = system: CYP1A2, 2B6, 2C8, 2C9, 2C19, 2D6, and 3A; settings: read-out: IC50, reversible inhibition of CYP enzymes; probe substrates in pooled HLM
# [18] = Admixture physical stability in 0.9% w/v sodium chloride; settings: 25° C.
# OC43-CoV 3CLpro = OC43-CoV 3CLpro (Human coronavirus OC43, UniProt P0C6X6); experiment: FRET protease activity assay; type: biochemical; settings: Beta-CoV; [E]T 52 ± 1 nM
# Sequence of OC43-CoV 3CLpro (P0C6X6 3247-3549): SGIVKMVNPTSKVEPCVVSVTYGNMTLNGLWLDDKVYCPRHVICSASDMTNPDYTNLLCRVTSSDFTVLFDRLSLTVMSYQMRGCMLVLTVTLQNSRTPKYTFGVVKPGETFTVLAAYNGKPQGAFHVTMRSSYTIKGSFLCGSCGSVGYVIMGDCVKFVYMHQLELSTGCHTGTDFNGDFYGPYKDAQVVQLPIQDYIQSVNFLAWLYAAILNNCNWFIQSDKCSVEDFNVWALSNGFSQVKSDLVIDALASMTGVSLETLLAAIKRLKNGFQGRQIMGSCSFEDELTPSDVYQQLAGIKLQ
# [19] = Patient Sera 2, individual value, n 1
# [20] = 2.5x dilution in 0.9% w/v sodium chloride
# [21] = 10x dilution in 0.9% w/v sodium chloride
compound,measurement,setting,value
COc1cccc2[nH]c(C(=O)N[C@@H](CC(C)C)C(=O)N[C@@H](C[C@@H]3CCNC3=O)C(=O)CO)cc12 [PF-00835231],predicted half-life,[1],approximately 2 h
same,predicted plasma clearance (CLp),[1],~6 mL/min/kg
same,visual inspection after freezing and thawing,Freeze-thaw experiment,No particulates were observed in any sample
same,decrease in chromatographic purity at 22° C.,[2],less than 0.5%
same,Ki,NL63-CoV 3CLpro,0.8 ± 0.5 nM
same,solubility at 25 h,physchem [3],200 µg/mL
same,solubility at 48 h,"physchem [4]; pH 3, aqueous buffer",100 µg/mL
same,solubility at 48 h,"physchem [4]; pH 5, aqueous buffer",100 µg/mL
same,solubility at 48 h,"physchem [4]; pH 7, aqueous buffer",100 µg/mL
same,cytotoxicity of the combinations,[5],no significant cytotoxicity
same,synergy score,[5]; combination with azithromycin,3.76
same,synergy score,[5]; combination with remdesivir,5.1
same,EC50,"[6]; Severe acute respiratory syndrome coronavirus 2, VeroE6-enACE2 cells, in the presence of the P-gp inhibitor, quoted for the EC50/EC90 difference, read-out: EC50",0.48 µM
same,EC90,"[6]; Severe acute respiratory syndrome coronavirus 2, Vero-cell lines, P-gp inhibitor added",480 to 1600 nM
same,difference between EC50 and EC90,[6]; both Vero cell types,2-3 fold
same,EC50,[6]; read-out: EC50 μM GeoMean,0.23 µM
same,solubility at 48 h,physchem [7],200 µg/mL
same,margin of activity against human cathepsin B compared to 3CLpro,Human Cathepsin B,1000 fold
same,EC50,[8],184 nM
same,EC90,[8],591 nM
same,melting temperature (Tm) of SARS-CoV-2 3CLpro with compound bound,SARS-CoV-2 3CLpro,70.5+/−0.12 °C
same,Ki,229E-CoV-2 3CLpro,1.5 ± 0.8 nM
same,EC90,[9],1600 nM
same,SFLogD7.4,[10],1.7
same,unbound CIint,cytochrome P450 enzymes,14 µL/min/mg
same,solubility at 48 h,physchem [11],> 45000 µg/mL
same,cytotoxicity in virus infected host cells,SARS-CoV-2; all the combinations with remdesivir tested,no noticeable cytotoxicity
same,Bliss Synergy Score,"SARS-CoV-2; Patient Sera 1, average, n 2",1.60
same,HSA Synergy Score,"SARS-CoV-2; Patient Sera 1, average, n 2",2.51
same,Loewe Synergy Score,"SARS-CoV-2; Patient Sera 1, average, n 2",1.60
same,Bliss Synergy Score,SARS-CoV-2; [19],(0.366)
same,HSA Synergy Score,SARS-CoV-2; [19],(0.830)
same,Loewe Synergy Score,SARS-CoV-2; [19],(−0.0776)
same,classification of the combination effect,"SARS-CoV-2; patient #1 sera, 2 independent experiments",synergy
same,classification of the combination effect,"SARS-CoV-2; sera from patient #2, single experiment",additivity
same,CC50,in vitro,> 10000 nM
same,PF-00835231 Assay,[12]; HPMC 1 mg/mL,0.4 mg/mL
same,PF-00835231 Assay,[12]; PEG400 […],0.4 mg/mL
same,PF-00835231 Assay,[12]; PEG3350 […],0.4 mg/mL
same,PF-00835231 Assay,[12]; PVP […],0.4 mg/mL
same,PF-00835231 Assay,[12]; no polymeric excipient,0.4 mg/mL
same,PF-00835321 Solubility,[13],>45000 µg/mL
same,appearance of solutions after 5 days mixing at 25° C.,[14],remained clear
same,CC50,VeroE6-enACE2 cells,> 100000 nM
same,eliminated unchanged in the urine,[15],approximately 10%
same,fraction unbound,[16],0.26 to 0.46
same,IC50,[17],> 200000 nM
same,Assay - 0 days,[18]; [20],2.3 mg/mL and 2.2 mg/mL
same,Assay - 3 days,[18]; [20],2.3 mg/mL and 2.2 mg/mL
same,Total Impurities - 0 days,[18]; [20],1.23 % peak area and 1.20 % peak area
same,Total Impurities - 3 days,[18]; [20],1.38 % peak area and 1.37 % peak area
same,Assay - 0 days,[18]; [21],0.6 mg/mL
same,Assay - 3 days,[18]; [21],0.6 mg/mL
same,Total Impurities - 0 days,[18]; [21],1.20 % peak area
same,Total Impurities - 3 days,[18]; [21],1.33 % peak area
same,Assay - 0 days,[18]; No dilution,5.8 mg/mL and 5.6 mg/mL
same,Assay - 3 days,[18]; No dilution,5.8 mg/mL and 5.7 mg/mL
same,Total Impurities - 0 days,[18]; No dilution,1.25 % peak area
same,Total Impurities - 3 days,[18]; No dilution,1.44 % peak area and 1.48 % peak area
same,Solid Form at 4° C.,pH 3,No Change-Hydrate
same,Solid Form at 4° C.,pH 5,No Change-Hydrate
same,Solid Form at 4° C.,pH 7,No Change-Hydrate
same,Ki,OC43-CoV 3CLpro,0.5 ± 0.1 nM
